Assay results taken from patent US20110039762A1, “TARGETED ANTIMICROBIAL MOIETIES” (C3 JIAN, INC., priority 2009, published 2011).
Entries after “also recorded” stand apart in the source; their conditions may differ.

How the values were obtained:
S. epidermidis = experiment: Kill or inhibit growth/proliferation; morphology, biofilm and growth disruption (Tables 5, 6); type: cell-based, Staphylococcus epidermidis; set-up: key: A: Peptide aggregates; B: Less hyphal formation; Clumps; Diffuse clumps and small polyps; F: Diffuse growth; H: Thin; I: Growth inhibition; Microcolony formation; Rippled; Small polyps; Thick; W: Halo formation on top, microlonies on bottom; also: test concentration or dose not given here
MRSA = experiment: as above; type: cell-based, Methicillin-resistant Staphylococcus aureus; set-up: key: A: Peptide aggregates; B: Less hyphal formation; Clumps; Diffuse clumps and small polyps; F: Diffuse growth; H: Thin; I: Growth inhibition; Microcolony formation; Rippled; Small polyps; Thick; W: Halo formation on top, microlonies on bottom
microorganisms = experiment: Peptides having multiple activities (targeting/binding, antimicrobial, growth or phenotype altering)
Source text: In certain embodiments, peptides described herein can have multiple activities. Thus for example, a peptide can have both binding/targeting activity and antimicrobial activity. Such peptides can be used, e.g., in a chimeric construct, for any or all of these properties. Thus, for example, a peptide designated “B” in Table 8 can be used as a targeting peptide. If it is also designated G or M it can also be used for antimicrobial activity.

[1] = test system: microorganisms (e.g., bacteria, yeasts, fungi); experiment: Targeting peptide binding to target microorganisms (Table 3); conditions: preferably 1x PBS
[2] = microorganism(s) the targeting peptide binds, binding in aqueous buffers depending on peptide solubility
[3] = microorganism(s) the targeting peptide binds, peptide binding conducted in aqueous buffers varied by peptide solubility
[4] = microorganism the targeting peptide binds, binding in aqueous buffers varied by peptide solubility
For Organism, effect in this document: test concentration or dose not given here.

| Substance | Organism, effect (S. epidermidis) | Organism, effect (MRSA) | Activities (microorganisms) | Target(s) [1, 2] | Target(s) [1, 3] | Target(s) [1, 4] |
| --- | --- | --- | --- | --- | --- | --- |
| PF-373: peptide having multiple activities (chain 1 HFYLLFER; chain 2 HFYLLFER; Peptide with targeting and/or antimicrobial activity) | S. epidermidis (M) | MRSA (M) | G B | S. epidermidis and E. coli and P. aeruginosa and C. albicans and MRSA and E. faecalis and C. jejuni | – | – |
| PF-404: peptide having multiple activities (VLYFQATVV; Peptide with targeting and/or antimicrobial activity) | S. epidermidis (M) | MRSA (M) | G B | – | S. epidermidis; also recorded: E. coli; also recorded: P. aeruginosa; also recorded: E. faecalis; also recorded: C. jeikeium; also recorded: C. jejuni | – |
| PF-313: peptide having multiple activities (YITSHKNARAIIKKFERDEILEEVITHYLNRK; Peptide with targeting and/or antimicrobial activity) | S. epidermidis (C) | – | G B | S. epidermidis; also recorded: C. difficile | – | – |
| PF-233: peptide having multiple activities (DANAMARTTIAIVYILALIALTISYSL; Peptide with targeting and/or antimicrobial activity) | S. epidermidis (C) | – | G B | S. epidermidis; also recorded: M. luteus; also recorded: P. aeruginosa; also recorded: A. baumannii | – | – |
| PF-024: peptide having multiple activities (chain 1 DLRKAK; chain 2 DLRKAK; Peptide with targeting and/or antimicrobial activity) | S. epidermidis (D) | MRSA (M) | G B | – | – | M. luteus and C. albicans and MRSA and E. faecalis and C. jeikeium |
| PF-397: peptide having multiple activities (VEDLMEDLNA; Peptide with targeting and/or antimicrobial activity) | S. epidermidis (C) | – | G B | – | S. epidermidis and MRSA and S. pneumoniae and E. faecalis and C. jejuni | – |
| PF-294: peptide having multiple activities (DFLVNFLWFKGELNWGKKRYK; Peptide with targeting and/or antimicrobial activity) | S. epidermidis (C) | – | G B | S. epidermidis; also recorded: C. difficile | – | – |
| PF-041: peptide having multiple activities (chain 1 ELLVILPGFI; chain 2 ELLVILPGFI; Peptide with targeting and/or antimicrobial activity) | S. epidermidis (R) | MRSA (M) | G B | – | – | MRSA |
| PF-273: peptide having multiple activities (LVGALLIFVALIYMVLKGNADKN; Peptide with targeting and/or antimicrobial activity) | S. epidermidis (C) | – | G B | S. epidermidis; also recorded: M. luteus; also recorded: P. aeruginosa; also recorded: A. baumannii | – | – |
| PF-009: peptide having multiple activities (chain 1 SKKYNHILNQENR; chain 2 SKKYNHILNQENR; Peptide with targeting and/or antimicrobial activity) | S. epidermidis (S) | – | G B | – | – | M. luteus; also recorded: P. mirabilis; also recorded: C. albicans |
| PF-180: peptide having multiple activities (SGLGDLGFSSEAK; Peptide with targeting and/or antimicrobial activity) | S. epidermidis (C) | – | G B | S. epidermidis and M. luteus and P. aeruginosa and C. albicans and MRSA and E. faecalis and C. jejuni and M. smegmatis | – | – |
| PF-064: peptide having multiple activities (chain 1 DYYGKE; chain 2 DYYGKE; Peptide with targeting and/or antimicrobial activity) | S. epidermidis (D) | MRSA (M) | G B | – | – | E. coli |
| PF-406: peptide having multiple activities (YLEMNADYLSNMDIFDELWEKYLENNK; Peptide with targeting and/or antimicrobial activity) | S. epidermidis (C) | MRSA (M) | G B | – | E. coli; also recorded: C. jejuni | – |
| PF-034: peptide having multiple activities (chain 1 EPKKKHFPKMESASSEP; chain 2 EPKKKHFPKMESASSEP; Peptide with targeting and/or antimicrobial activity) | S. epidermidis (A) | – | G B | – | – | M. luteus |
| PF-408: peptide having multiple activities (YCVPLGNMGNMNNKIW; Peptide with targeting and/or antimicrobial activity) | S. epidermidis (M) | MRSA (M) | G B | – | S. epidermidis and E. coli and P. aeruginosa and MRSA and E. faecalis and C. jeikeium and C. jejuni | – |
| PF-027: peptide having multiple activities (chain 1 HNARKYLEFISQKIDGDKLTKEDSL; chain 2 HNARKYLEFISQKIDGDKLTKEDSL; Peptide with targeting and/or antimicrobial activity) | S. epidermidis (D) | MRSA (M) | G B | – | – | M. luteus and MRSA and E. faecalis and C. jejuni |
| PF-378: peptide having multiple activities (chain 1 ESAKSNLNFLMQEEWALFLLL; chain 2 ESAKSNLNFLMQEEWALFLLL; Peptide with targeting and/or antimicrobial activity) | S. epidermidis (M) | MRSA (M) | G B | B. subtilis; also recorded: B. fragilis; also recorded: E. coli; also recorded: P. aeruginosa; also recorded: C. jeikeium | – | – |
